Source: patent publication EP3212201B1, “NUCLEOSIDE KINASE INHIBITORS” (BCI Pharma, priority 2014, dated 2016)

Columns and labels:
Assay in all cases: FRET-based coupled-enzyme protein kinase inhibition assay
Assay type in all cases: biochemical
Conditions in all cases: compound at 10 µM, 1% DMSO
[1] = biological target: T1, ACVR1B (ALK4) (Homo sapiens, UniProt P36896)
T1 sequence (P36896 24-505): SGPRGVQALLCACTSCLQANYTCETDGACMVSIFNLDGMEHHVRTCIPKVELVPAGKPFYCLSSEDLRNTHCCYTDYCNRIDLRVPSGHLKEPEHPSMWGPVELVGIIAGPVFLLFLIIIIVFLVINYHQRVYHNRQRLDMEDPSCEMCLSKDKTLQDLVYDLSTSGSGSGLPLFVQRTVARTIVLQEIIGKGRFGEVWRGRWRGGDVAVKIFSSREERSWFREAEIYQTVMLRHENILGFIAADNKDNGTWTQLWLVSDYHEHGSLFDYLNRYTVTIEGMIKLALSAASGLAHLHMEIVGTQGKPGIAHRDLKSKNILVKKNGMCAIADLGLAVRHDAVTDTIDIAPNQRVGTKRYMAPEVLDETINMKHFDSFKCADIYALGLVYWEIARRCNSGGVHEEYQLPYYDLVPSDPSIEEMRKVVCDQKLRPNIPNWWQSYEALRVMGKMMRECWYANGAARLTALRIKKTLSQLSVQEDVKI
Experimental: (§1) A biochemical assay was then performed in order to measure the protein kinase inhibition. It employed a fluorescence-based coupled-enzyme format and was based on the differential sensitivity of phosphorylated and non-phosphorylated peptides to proteolytic cleavage.
(§2) Peptide substrates were labeled with two fluorophores. The two fluorohores used were coumarin (donor) and fluorecein (acceptor), and each of the peptides was bearing one at one end, and one at the other end, which made up fluorescence resonance energy transfer (FRET) pair peptides.
(§3) In a primary reaction, the FRET-peptides were submitted to a phosphorylation reaction, in which one of adenosine triphosphate (ATP)'s phosphate groups was transferred to the peptide in the presence of kinase. When kinase inhibition takes place, the peptide will not be phosphorylated. In a secondary reaction, both the phosphorylated FRET-peptides and the non-phosphorylated FRET-peptides were reacted with a development reagent. It has been observed that non-phosphorylated FRET-peptides were cleaved, whereas the phosphorylted FRET-peptide remained intact.
(§4) Cleavage disrupts FRET between the donor (i.e., coumarin) and acceptor (i.e., fluorescein) fluorophores on the FRET-peptide, whereas uncleaved, phosphorylated FRET-peptides maintain FRET. A ratiometric method, which calculates the Emission Ratio of donor emission to acceptor emission after excitation of the donor fluorophore at 400 nm, is used to quantitate reaction progress, as shown in the equation below. [formula]
(§5) A significant benefit of this ratiometric method for quantitating reaction progress is the elimination of well-to-well variations in FRET-peptide concentration and signal intensities. As a result, the assay yields very high Z'factor values (>0.7) at a low percent phosphorylation. Both cleaved and uncleaved FRET-peptides contribute to the fluorescence signals and therefore to the Emission Ratio. The extent of phosphorylation of the FRET-peptide can be calculated from the Emission Ratio. The Emission Ratio will remain low if the FRET-peptide is phosphorylated (i.e., no kinase inhibition) and will be high if the FRET-peptide is non-phosphorylated (i.e., kinase inhibition).
(§6) The Test Compounds were screened in 1% DMSO. For 10 point titrations, 3-fold serial dilutions were prepared from the starting concentration.
(§7) All Peptide/Kinase Mixtures were diluted to a 2X working concentration in the appropriate Kinase Buffer (50 mM HEPES pH 7.5, 0.01% BRIJ-35, 10 mM MgCl2, 1 mM […]).
(§8) All ATP Solutions were diluted to a 4X working concentration in Kinase Buffer. ATP Km apparent was previously determined using another assay.
(§9) 2.5 µL - 4X Test Compound or 100 nL 100X plus 2.4 µL kinase buffer were mixed together with 2. 5 µL - 2X Peptide/Kinase Mixture and 3. 2.5 µL - 4X ATP Solution.
(§10) The solution was plate-shaked for 30 seconds, then incubated 60 minutes at room temperature for kinase reaction. 5 µL of Development Reagent Solution were then added, followed by a 30-second plate shake and a 60-minute Development Reaction incubation at room temperature. The results were read on a fluorescence plate reader and the data was analyzed.
(§11) The compounds that show the highest Emission Ratio are the ones that also show the highest protein kinase inhibition properties.

[2] = biological target: AMPK A1/B1/G1 (Homo sapiens, UniProt Q13131)
Experimental: as §1, §2, §3, §4, §5, §6, §7, §8, §9, §10, §11

[3] = biological target: CDK1/cyclin B (Homo sapiens, UniProt P06493)
Experimental: as §1, §2, §3, §4, §5, §6, §7, §8, §9, §10, §11

[4] = biological target: ERBB2 (HER2) (Homo sapiens, UniProt P04626)
Experimental: as §1, §2, §3, §4, §5, §6, §7, §8, §9, §10, §11

[5] = biological target: T2, IRAK4 (Homo sapiens, UniProt Q9NWZ3)
T2 sequence (Q9NWZ3 1-460): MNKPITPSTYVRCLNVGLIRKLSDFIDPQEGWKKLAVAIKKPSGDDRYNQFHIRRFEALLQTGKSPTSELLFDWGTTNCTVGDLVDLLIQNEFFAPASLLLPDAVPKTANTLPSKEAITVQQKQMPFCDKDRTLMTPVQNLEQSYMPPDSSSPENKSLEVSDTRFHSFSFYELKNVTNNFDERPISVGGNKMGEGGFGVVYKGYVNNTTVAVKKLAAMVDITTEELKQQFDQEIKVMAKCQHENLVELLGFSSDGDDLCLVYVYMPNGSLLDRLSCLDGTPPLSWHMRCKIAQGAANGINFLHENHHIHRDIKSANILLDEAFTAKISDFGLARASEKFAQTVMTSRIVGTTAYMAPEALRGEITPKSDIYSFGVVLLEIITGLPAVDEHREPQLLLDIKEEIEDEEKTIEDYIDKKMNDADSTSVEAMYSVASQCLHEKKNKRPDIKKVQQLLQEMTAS
Experimental: as §1, §2, §3, §4, §5, §6, §7, §8, §9, §10, §11

[6] = biological target: PAK4 (Homo sapiens, UniProt O96013)
Experimental: as §1, §2, §3, §4, §5, §6, §7, §8, §9, §10, §11

[7] = biological target: T3, PHKG2 (Homo sapiens, UniProt P15735)
T3 sequence (P15735 1-406): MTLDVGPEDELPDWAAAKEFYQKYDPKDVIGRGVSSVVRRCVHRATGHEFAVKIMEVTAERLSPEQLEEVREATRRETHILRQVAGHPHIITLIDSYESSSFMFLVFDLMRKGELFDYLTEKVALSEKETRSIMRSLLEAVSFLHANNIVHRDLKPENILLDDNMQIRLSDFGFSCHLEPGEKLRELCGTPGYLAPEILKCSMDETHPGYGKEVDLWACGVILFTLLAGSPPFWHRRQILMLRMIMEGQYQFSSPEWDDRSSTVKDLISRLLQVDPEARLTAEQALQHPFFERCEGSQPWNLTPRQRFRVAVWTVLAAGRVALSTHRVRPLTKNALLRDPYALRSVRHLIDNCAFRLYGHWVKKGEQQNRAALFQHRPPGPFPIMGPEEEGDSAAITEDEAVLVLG
Experimental: as §1, §2, §3, §4, §5, §6, §7, §8, §9, §10, §11

[8] = biological target: PLK1 (Homo sapiens, UniProt P53350)
Experimental: as §1, §2, §3, §4, §5, §6, §7, §8, §9, §10, §11

PLK1, sequence (P53350 whole entry, species assumed): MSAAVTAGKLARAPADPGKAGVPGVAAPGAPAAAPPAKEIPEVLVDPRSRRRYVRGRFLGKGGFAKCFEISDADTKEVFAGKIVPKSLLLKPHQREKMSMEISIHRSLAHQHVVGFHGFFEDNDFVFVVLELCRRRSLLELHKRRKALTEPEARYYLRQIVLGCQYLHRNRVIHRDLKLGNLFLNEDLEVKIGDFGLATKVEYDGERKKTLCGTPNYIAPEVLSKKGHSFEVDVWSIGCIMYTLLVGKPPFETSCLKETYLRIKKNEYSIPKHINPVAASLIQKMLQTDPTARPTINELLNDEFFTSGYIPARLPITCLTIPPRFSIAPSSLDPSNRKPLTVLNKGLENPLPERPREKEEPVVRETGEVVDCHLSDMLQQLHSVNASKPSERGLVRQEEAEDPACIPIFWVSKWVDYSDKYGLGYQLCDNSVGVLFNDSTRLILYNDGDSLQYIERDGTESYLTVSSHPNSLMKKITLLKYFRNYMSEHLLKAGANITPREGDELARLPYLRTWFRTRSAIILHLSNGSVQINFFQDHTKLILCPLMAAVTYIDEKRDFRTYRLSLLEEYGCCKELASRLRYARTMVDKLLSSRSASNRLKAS
AMPK A1/B1/G1, sequence (Q13131 whole entry): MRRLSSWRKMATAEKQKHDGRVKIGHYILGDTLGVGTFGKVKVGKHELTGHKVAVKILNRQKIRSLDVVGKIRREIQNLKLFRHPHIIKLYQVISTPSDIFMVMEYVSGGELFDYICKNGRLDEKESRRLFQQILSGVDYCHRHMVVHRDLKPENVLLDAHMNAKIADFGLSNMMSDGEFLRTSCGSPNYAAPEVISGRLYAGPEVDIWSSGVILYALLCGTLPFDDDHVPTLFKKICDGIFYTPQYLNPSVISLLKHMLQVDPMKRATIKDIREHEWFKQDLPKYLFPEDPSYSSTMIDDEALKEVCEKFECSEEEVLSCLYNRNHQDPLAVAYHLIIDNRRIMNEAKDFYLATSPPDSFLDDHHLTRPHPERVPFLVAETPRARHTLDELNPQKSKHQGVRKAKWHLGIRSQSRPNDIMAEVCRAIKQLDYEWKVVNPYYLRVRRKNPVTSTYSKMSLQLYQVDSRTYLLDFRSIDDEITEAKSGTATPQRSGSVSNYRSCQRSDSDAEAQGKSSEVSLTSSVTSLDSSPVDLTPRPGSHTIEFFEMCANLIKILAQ
AMPK A1/B1/G1, sequence (Q9Y478 whole entry partner): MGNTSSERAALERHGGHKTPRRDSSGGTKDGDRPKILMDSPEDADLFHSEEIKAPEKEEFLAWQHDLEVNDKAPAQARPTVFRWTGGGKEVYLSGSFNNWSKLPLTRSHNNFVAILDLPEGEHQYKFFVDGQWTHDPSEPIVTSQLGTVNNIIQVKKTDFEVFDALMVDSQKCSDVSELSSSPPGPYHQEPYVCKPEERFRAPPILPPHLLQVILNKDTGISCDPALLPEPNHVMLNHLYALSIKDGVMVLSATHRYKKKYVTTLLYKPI
AMPK A1/B1/G1, sequence (P54619 whole entry partner): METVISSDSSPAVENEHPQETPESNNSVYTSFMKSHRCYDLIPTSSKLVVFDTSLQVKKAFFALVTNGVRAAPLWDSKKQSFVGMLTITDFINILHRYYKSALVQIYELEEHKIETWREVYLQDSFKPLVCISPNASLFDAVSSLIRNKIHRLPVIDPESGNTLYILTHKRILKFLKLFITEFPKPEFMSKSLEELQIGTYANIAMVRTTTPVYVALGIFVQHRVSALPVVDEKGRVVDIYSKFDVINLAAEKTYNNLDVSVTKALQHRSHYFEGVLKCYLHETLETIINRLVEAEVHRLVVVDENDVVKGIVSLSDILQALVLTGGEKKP
PAK4, sequence (O96013 whole entry, species assumed): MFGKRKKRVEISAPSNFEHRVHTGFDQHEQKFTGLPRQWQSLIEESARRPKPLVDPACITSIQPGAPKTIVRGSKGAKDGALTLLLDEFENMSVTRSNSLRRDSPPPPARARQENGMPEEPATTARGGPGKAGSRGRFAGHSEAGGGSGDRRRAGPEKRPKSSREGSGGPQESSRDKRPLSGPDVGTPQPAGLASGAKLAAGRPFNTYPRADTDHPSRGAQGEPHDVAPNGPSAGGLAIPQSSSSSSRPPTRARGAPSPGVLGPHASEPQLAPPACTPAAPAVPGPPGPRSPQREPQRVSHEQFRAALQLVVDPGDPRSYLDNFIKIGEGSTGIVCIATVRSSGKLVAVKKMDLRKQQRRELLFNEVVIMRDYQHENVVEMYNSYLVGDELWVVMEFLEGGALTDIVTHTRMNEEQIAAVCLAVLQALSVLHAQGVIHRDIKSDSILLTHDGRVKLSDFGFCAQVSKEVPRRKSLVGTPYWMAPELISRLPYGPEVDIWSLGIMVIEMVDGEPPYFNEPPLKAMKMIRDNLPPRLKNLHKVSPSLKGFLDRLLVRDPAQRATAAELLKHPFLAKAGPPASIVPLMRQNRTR
CDK1/cyclin B, sequence (P06493 whole entry, species assumed): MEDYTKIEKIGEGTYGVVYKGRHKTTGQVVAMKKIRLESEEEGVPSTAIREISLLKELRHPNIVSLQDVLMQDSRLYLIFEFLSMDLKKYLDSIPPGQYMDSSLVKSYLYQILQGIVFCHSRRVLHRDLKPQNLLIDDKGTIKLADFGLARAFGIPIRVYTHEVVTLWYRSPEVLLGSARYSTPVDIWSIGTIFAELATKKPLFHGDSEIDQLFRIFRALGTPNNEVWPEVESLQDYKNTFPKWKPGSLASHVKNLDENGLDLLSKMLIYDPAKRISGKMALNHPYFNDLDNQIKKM
CDK1/cyclin B, sequence (P14635 whole entry partner, species assumed): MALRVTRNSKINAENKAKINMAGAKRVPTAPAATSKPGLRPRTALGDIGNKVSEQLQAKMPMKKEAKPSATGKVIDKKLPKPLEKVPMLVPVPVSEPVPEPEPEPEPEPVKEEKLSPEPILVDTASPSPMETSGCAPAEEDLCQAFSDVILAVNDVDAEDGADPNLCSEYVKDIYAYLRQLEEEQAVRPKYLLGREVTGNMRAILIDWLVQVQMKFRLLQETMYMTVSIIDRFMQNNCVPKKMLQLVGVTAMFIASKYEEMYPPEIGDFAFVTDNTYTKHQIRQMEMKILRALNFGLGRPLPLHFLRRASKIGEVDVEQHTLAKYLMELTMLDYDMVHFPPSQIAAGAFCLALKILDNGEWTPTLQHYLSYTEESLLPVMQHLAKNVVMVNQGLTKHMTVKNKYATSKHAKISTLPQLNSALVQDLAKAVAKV
ERBB2 (HER2), sequence (P04626 23-1255, species assumed): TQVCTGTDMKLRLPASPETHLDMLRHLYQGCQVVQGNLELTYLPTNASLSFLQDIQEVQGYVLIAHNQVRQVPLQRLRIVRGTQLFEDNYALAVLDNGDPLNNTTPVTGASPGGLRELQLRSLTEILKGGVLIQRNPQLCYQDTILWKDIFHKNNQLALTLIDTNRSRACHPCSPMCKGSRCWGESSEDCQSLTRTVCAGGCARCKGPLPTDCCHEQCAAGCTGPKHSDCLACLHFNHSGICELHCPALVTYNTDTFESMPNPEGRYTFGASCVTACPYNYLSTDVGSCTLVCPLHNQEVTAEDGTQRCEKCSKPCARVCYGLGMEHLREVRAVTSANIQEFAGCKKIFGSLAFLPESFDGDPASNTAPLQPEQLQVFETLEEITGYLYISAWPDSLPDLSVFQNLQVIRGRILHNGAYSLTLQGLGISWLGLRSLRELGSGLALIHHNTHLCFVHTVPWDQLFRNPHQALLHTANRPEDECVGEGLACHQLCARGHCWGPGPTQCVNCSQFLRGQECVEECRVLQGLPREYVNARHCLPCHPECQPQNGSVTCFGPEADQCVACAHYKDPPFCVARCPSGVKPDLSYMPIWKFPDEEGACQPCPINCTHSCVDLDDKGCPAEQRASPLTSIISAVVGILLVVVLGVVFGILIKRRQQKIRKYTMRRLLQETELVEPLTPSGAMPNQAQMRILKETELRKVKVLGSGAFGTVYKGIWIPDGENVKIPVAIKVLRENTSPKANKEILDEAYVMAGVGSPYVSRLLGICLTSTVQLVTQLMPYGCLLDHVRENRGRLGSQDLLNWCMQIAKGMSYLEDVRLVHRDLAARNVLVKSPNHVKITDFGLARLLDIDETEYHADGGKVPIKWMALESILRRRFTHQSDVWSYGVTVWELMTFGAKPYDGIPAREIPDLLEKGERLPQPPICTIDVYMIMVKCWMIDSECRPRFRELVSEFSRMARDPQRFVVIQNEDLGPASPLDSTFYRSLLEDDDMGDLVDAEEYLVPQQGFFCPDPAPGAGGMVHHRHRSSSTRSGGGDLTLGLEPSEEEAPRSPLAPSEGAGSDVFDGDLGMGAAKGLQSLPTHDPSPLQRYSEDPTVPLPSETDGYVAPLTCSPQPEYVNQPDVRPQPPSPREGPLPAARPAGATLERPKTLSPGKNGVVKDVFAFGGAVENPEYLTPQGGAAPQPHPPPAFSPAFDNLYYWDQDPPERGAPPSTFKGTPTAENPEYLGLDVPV

Row | SMILES | inhibition at 10 µM [1] [%] | inhibition at 10 µM [2] [%] | inhibition at 10 µM [3] [%] | inhibition at 10 µM [4] [%] | inhibition at 10 µM [5] [%] | inhibition at 10 µM [6] [%] | inhibition at 10 µM [7] [%] | inhibition at 10 µM [8] [%]
1 | N#CCCN1CCN(C(=O)OC[C@H]2O[C@@H](n3cnc4c(N)ncnc43)[C@H](O)[C@@H]2O)CC1 [Compound C70] | 1 | 8 | 4 | 0 | 0 | 4 | 1 | 0
2 | CN(C)CCNC(=O)OC[C@H]1O[C@@H](n2cnc3c(N)ncnc32)[C@H](O)[C@@H]1O [Compound C85] | 0 | 4 | 3 | -13 | -1 | 1 | 1 | -3
3 | Nc1ncnc2c1ncn2[C@@H]1O[C@H](COC(=O)N2CCN(C(=O)N3CCOCC3)CC2)[C@@H](O)[C@H]1O [Compound C89] | 0 | 2 | 1 | -7 | -5 | -4 | -2 | -10
4 | CS(=O)(=O)N1CC2(CCN(C(=O)OC[C@H]3O[C@@H](n4cnc5c(N)ncnc54)[C@H](O)[C@@H]3O)CC2)c2ccccc21 [Compound C98] | -1 | 9 | 8 | 5 | -17 | 7 | -1 | -7
5 | Nc1ncnc2c1ncn2[C@@H]1O[C@H](COC(=O)N2CCS(=O)(=O)CC2)[C@@H](O)[C@H]1O [Compound C100] | 3 | 4 | 5 | 2 | 0 | 2 | 1 | -11
